This is an account of results in patent US6548492B1, “Process for formulation of carbapenem antibiotic compositions” (Merck & Co., Inc., priority 1999, dated 2003).

For data set [1] the following is noted: cited from earlier work.
The nature of data set [2]: Stability and hygroscopicity of the bulk monosodium salt carbapenem on storage. The class given is physicochemical. On the procedure:
and a process for the preparation thereof.
During the manufacture of bulk compound products such as beta-lactam and carbapenem antibiotics, the pharmaceutical compound is prepared by chemical synthesis from raw materials in large quantities. As with many carbapenem compounds, the compound in accordance with formula I is prepared in large batches as a monosodium salt. The compound is a weakly crystalline solid, hygroscopic at ambient conditions, and is unstable at room and refrigerated temperatures. Therefore, the bulk compound must be stored at a temperature of about −20° C. to prevent degradation into dimer and open ring by-products.

Take `CC(O)C1C(=O)N2C(C(=O)[O-])=C(SC3CNC(C(=O)Nc4cccc(C(=O)O)c4)C3)C(C)C12.[Na+]` (stereo not shown) [formula I]: the “stability at ambient conditions” value in data set [1] (20° C. and 1 atmosphere, monosodium salt) is listed as “relatively unstable”. In addition, the “stability at temperatures above about −20° C.” value in data set [1] (undergoes dimerization and hydrolysis to dimers and open ring by-products) was “remains unstable”. In addition, in data set [2] (ambient conditions, weakly crystalline solid), the hygroscopicity result is “hygroscopic”. For the same compound, the “stability at room and refrigerated temperatures” value in data set [2] (bulk monosodium salt) was “unstable”.
